Laboratory results reported in paper PMC6591251, “Discovery of potent necroptosis inhibitors targeting RIPK1 kinase activity for the treatment of inflammatory disorder and cancer metastasis” (Cell Death & Disease, 2019).
Entries after “also recorded” stand apart in the source; their conditions may differ.

What was measured:
NIH3T3-RIPK3 cells [1] = assay: RIPK3 dimerization-induced necroptosis (AP20187); assay type: cell-based, mouse; conditions: AP20187 100 nM, 24 h
Procedure: (§1) Recombinant proteins were incubated with PK6 and PK68 as indicated. […] NIH3T3-RIPK3 cells were pretreated with indicated compounds for 1 h and subsequently treated with T (40 ng/ml)/S (100 nM)/Z (20 μM) or AP20187 (100 nM) for 24 h. Cell viability was determined by measuring ATP levels. e PK6 and PK68 have no effect on MLKL dimerization-induced cell death in HeLa-MLKL (1–190) cells that stably express MLKL (1–190aa) fused to DmrB. HeLa-MLKL (1–190) cells were pretreated with indicated compounds for 1 h and subsequently treated with AP20187 (100 nM) for 24 h. Cell viability was determined by measuring ATP levels.
(§2) Further, we evaluated the selectivity of PK68 against a panel of 369 kinases provided by Reaction Biology (at 1000 nM). […] In addition, we followed on some of the active “hits” from the kinome scan. PK68 was tested against TNIK and TRKA by a reputable CRO company. […] RIPK1 is known to mediate NF-κB activation independently of its kinase activity. […] It has been shown that homodimerization of RIPK3 or MLKL induced by the dimerizer leads to necroptosis bypassing the upstream signals[10],[37]. […] This dimerized RIPK3-induced necroptosis was blocked by RIPK3 inhibitor GSK873 but was not blocked by the RIPK1 inhibitor necrostatin-1. […] (Fig. 4e).
(§3) The cell viability was analyzed by using the CellTiter-Glo Luminescent Cell Viability Assay kit following the manufacturer’s instructions (Promega). Luminescence was measured with SpectraMax i3x (Molecular Devices).

RIPK3 = biological target: T1, RIPK3 (Homo sapiens, UniProt Q9Y572); assay: In vitro kinase activity assay (ADP-Glo); assay type: biochemical; conditions: even at a 1000 nM concentration
T1 construct: purchased Reaction Biology Corporation
T1 sequence (Q9Y572 whole entry): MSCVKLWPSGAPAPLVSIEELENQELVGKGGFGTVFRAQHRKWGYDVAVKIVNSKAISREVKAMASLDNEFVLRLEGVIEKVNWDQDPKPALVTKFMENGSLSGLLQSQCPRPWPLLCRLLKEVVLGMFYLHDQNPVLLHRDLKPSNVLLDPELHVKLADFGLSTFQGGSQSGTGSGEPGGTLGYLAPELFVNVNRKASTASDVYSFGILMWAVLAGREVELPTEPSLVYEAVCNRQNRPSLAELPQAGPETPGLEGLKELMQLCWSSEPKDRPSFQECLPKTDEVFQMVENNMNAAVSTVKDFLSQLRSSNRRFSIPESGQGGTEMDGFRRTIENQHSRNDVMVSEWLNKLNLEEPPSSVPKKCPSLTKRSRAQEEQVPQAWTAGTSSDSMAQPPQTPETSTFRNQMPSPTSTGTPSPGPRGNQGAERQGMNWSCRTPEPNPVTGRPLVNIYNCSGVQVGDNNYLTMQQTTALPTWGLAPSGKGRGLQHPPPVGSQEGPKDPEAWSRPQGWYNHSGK
Procedure: Having shown that PK6 and PK68 can inhibit activation of both RIPK1 and RIPK3 during TNF-mediated necroptosis, we sought to determine if PK6 and PK68 can directly target RIPK1 or and RIPK3 by performing in vitro kinase assays. Both PK6 and PK68 were able to block the kinase activities of both human RIPK1 and mouse RIPK1 in vitro (Fig. 4a and Supplementary Fig. 19).
Recombinant proteins were incubated with PK6 and PK68 as indicated. […] NIH3T3-RIPK3 cells were pretreated with indicated compounds for 1 h and subsequently treated with T (40 ng/ml)/S (100 nM)/Z (20 μM) or AP20187 (100 nM) for 24 h. Cell viability was determined by measuring ATP levels. e PK6 and PK68 have no effect on MLKL dimerization-induced cell death in HeLa-MLKL (1–190) cells that stably express MLKL (1–190aa) fused to DmrB. HeLa-MLKL (1–190) cells were pretreated with indicated compounds for 1 h and subsequently treated with AP20187 (100 nM) for 24 h. Cell viability was determined by measuring ATP levels. […]
The recombinant RIPK1 or RIPK3 protein was incubated with DMSO or the indicated compound for 15 min in the assay buffer (25 mM HEPES pH 7.2, 20 mM MgCl2, 12.5 mM MnCl2, 12.5 mM β-glycerol phosphate, 5 mM EGTA, 2 mM EDTA, and 2 mM DTT). […] The luminescence was measured to calculate the kinase activity after the addition of the ADP-Glo Kinase Assay kit following the manufacturer’s instructions (Promega).

[2] = tested on: rat bone marrow-derived macrophages; assay: TNFR- and TLR-mediated necroptosis; assay type: cell-based; conditions: rat BMDM; PK6 10 μM, PK68 100 nM; 24–30 h
From the text: (§4) In addition to TNF-induced necroptosis, it is known that TLR3 or TLR4 activation can also trigger necroptosis. We further evaluated the effects of PK6 and PK68 on TLR3- and TLR4-mediated necroptosis induced by poly(I:C)/z-VAD and LPS/z-VAD, respectively. […] To investigate the molecular mechanism of PK series-mediated necroptosis inhibition, we examined the effects of these compounds on the major steps of necroptotic signaling, including activation of RIPK1, RIPK3, and MLKL. […] It has been shown previously that RIPK3 activation leads to the formation of RIPK3 puncta during necroptosis.
(§5) Fig. 3 PK6 and PK68 block cellular activation of RIPK1, RIPK3, and MLKL upon necroptotic stimuli. a, b Bone marrow-derived macrophages from C57BL/6 mice or rat were pretreated with DMSO, PK6(10 μM), or PK68 (100 nM) for 1 h and subsequently treated with indicated stimuli for 24–30 h. Cell viability was determined by measuring ATP levels. L, LPS (20 ng/ml); P, poly(I:C) (50 μg/ml); S (100 nM); Z (10 μM). […] The distribution of RIPK3 was detected by immunofluorescence. *P < 0.05. **P < 0.01. ***P < 0.001 […]
as §3

NIH3T3-RIPK3 cells [3] = assay: TNF-induced necroptosis (T/S/Z); assay type: cell-based, mouse; conditions: T/S/Z 24 h
Procedure: as §1, §3

[4] = tested on: mouse bone marrow-derived macrophages; assay: TLR3- and TLR4-mediated necroptosis (poly(I:C)/z-VAD, LPS/z-VAD); assay type: cell-based; conditions: mouse BMDM; PK6 10 μM, PK68 100 nM; 24–30 h
From the text: as §4, §5, §3

[5] = tested on: NF-κB activation in HT-29 cells; assay: TNF-induced NF-κB activation, western blot of IκB-α and phospho-IκB-α; assay type: cell-based, human; conditions: TNF-α 40 ng/ml 15 min
Procedure: as §2
HT-29 cells were pretreated with indicated compounds for 1h prior to stimulation with TNF-α (40ng/ml) for 15 minutes. The levels of IκB-α and phosphor-IκB-α were analyzed by western blot analysis. The NF-κB inhibitor BMS-345541 was used as a positive control.

Structure (SMILES) | RIPK3 dimerization-induced necroptosis (NIH3T3-RIPK3 cells [1]) | RIPK3 kinase activity (RIPK3) | TNFR- and TLR-mediated necroptosis [2] | TNF-induced necroptosis in NIH3T3-RIPK3 cells (NIH3T3-RIPK3 cells [3]) | TLR3- and TLR4-mediated necroptosis [4] | TNF-induced NF-κB activation [5]
CC(=O)Nc1nc2ccc(-c3cnc(Cl)c(NC(=O)Cc4ccccc4)c3)cc2s1 [PK6, N-(5-(2-acetamidobenzo[d]thiazol-6-yl)-2-chloropyridin-3-yl)-2-phenylacetamide] | neither PK6 nor PK68 blocked | neither PK6 nor PK68 affected RIPK3 kinase activity | showed inhibitory effects | inhibit | significantly blocked | no obvious effects; also recorded: no impact; also recorded: no effect
CC(=O)Nc1nc2ccc(-c3cnc(C)c(NC(=O)OC4CCCCC4)c3)cc2s1 [PK68, cyclohexyl (5-(2-acetamidobenzo[d]thiazol-6-yl)-2-methylpyridin-3-yl)carbamate] | neither PK6 nor PK68 blocked | neither PK6 nor PK68 affected RIPK3 kinase activity | showed inhibitory effects | inhibit | significantly blocked | no obvious effects; also recorded: no impact; also recorded: no effect
